According to DBAASP:
≈ marks a conversion by molar mass, not a printed value. Each block holds one molecule with its values, some of them ahead of it.

How the values were obtained:
Test in all cases: ≥ marks a high value that may be exact or a test limit, other limits are often not marked, values filed in µg/mL are converted to µM
[1] = system: Acinetobacter baumannii 97830
[2] = system: Acinetobacter baumannii 9931
[3] = system: Acinetobacter baumannii ATCC 19606
[4] = system: Bacillus subtilis ATCC 23857
Escherichia coli 780 = system: Escherichia coli 780
Escherichia coli 804 = system: Escherichia coli 804
[5] = system: Klebsiella pneumoniae ATCC 700603
[6] = system: Pseudomonas aeruginosa 50
[7] = system: Pseudomonas aeruginosa 73
[8] = system: Pseudomonas aeruginosa ATCC 27853
[9] = system: Pseudomonas aeruginosa ATCC 9027
[10] = system: Staphylococcus aureus 113
Staphylococcus aureus 75 = system: Staphylococcus aureus 75
[11] = system: Staphylococcus aureus ATCC 29213
[12] = system: Staphylococcus epidermidis ATCC 12228
[13] = system: Enterobacter cloacae 218R
[14] = system: Enterococcus faecalis ATCC 29212
[15] = system: Enterococcus faecalis W61950
[16] = system: Enterococcus faecalis f43559
[17] = system: Enterococcus faecium mic80
[18] = system: Enterococcus faecium t62764
[19] = system: Escherichia coli ESBL 63103
[20] = system: Escherichia coli ESBL 64771
[21] = system: Klebsiella pneumoniae ESBL 61962
[22] = system: Klebsiella pneumoniae ESBL 63575
[23] = system: Pseudomonas aeruginosa 198
[24] = system: Pseudomonas aeruginosa 213
Pseudomonas aeruginosa 9 = system: Pseudomonas aeruginosa 9
[25] = system: Pseudomonas aeruginosa H1027
[26] = system: Pseudomonas aeruginosa H1030
[27] = system: Pseudomonas aeruginosa LES400
[28] = system: Pseudomonas aeruginosa PAO1 H103
[29] = system: Staphylococcus aureus ATCC 25923
[30] = system: Staphylococcus aureus C623
[31] = system: Stenotrophomonas maltophilia ATCC 13637
[32] = system: Candida albicans ATCC 10231
[33] = system: Cryptococcus neoformans ATCC 32045
[34] = system: Escherichia coli ATCC 2592
[35] = system: Pseudomonas aeruginosa ATCC 10145
[36] = system: Staphylococcus aureus ATCC 33591
[37] = system: Bacillus licheniformis X39
[38] = system: Escherichia coli ATCC 25922
[39] = system: Rhodococcus rhodochrous X15

- MIC [13]: 7.12 µM (≈ 9.6 µg/mL)
- MIC [14]: 27.4 µM (≈ 37 µg/mL)
- MIC [15]: ≥ 110 µM
- MIC [16]: ≥ 110 µM
- MIC [17]: 7.12 µM (≈ 9.6 µg/mL)
- MIC [18]: 1.78 µM (≈ 2.4 µg/mL)
- MIC [19]: 3.48 µM (≈ 4.7 µg/mL)
- MIC [20]: 3.48 µM (≈ 4.7 µg/mL)
- MIC [21]: ≥ 110 µM
- MIC [22]: 27.4 µM (≈ 37 µg/mL)
- MIC [23]: 27.4 µM (≈ 37 µg/mL)
- MIC [24]: 27.4 µM (≈ 37 µg/mL)
- MIC (Pseudomonas aeruginosa 9): 27.4 µM (≈ 37 µg/mL)
- MIC [25]: 3.48 µM (≈ 4.7 µg/mL)
- MIC [26]: 27.4 µM (≈ 37 µg/mL)
- MIC [27]: 27.4 µM (≈ 37 µg/mL)
- MIC [28]: 13.3 µM (≈ 18 µg/mL)
- MIC [29]: 3.48 µM (≈ 4.7 µg/mL)
- MIC [30]: 3.48 µM (≈ 4.7 µg/mL)
- MIC [31]: 1.78 µM (≈ 2.4 µg/mL)
SMILES: CC[C@H](C)[C@H](NC(=O)[C@H](Cc1c[nH]c2ccccc12)NC(=O)[C@H](Cc1c[nH]c2ccccc12)NC(=O)[C@H](CCCCN)NC(=O)[C@H](CC(C)C)NC(=O)[C@H](CCCN=C(N)N)NC(=O)[C@H](CCCCN)NC(=O)[C@@H](N)CCCN=C(N)N)C(=O)N[C@@H](Cc1ccc(O)cc1)C(=O)O [RKRLKWWIY]

- MIC [32]: > 206 µM
- MIC [33]: ≥ 36.2 µM
- MIC [34]: ≥ 36.2 µM
- MIC [35]: 25.5 µM (≈ 62 µg/mL)
- MIC [36]: ≥ 103 µM
SMILES: CC(C)C[C@H](NC(=O)[C@H](CCCCN)NC(=O)[C@H](CCCCN)NC(=O)[C@H](CC(C)C)NC(=O)[C@H](CC(C)C)NC(=O)[C@H](CCCCN)NC(=O)[C@H](CCCCN)NC(=O)[C@H](CC(C)C)NC(=O)[C@H](CC(C)C)NC(=O)[C@H](CCCCN)NC(=O)[C@H](CCCCN)NC(=O)[C@H](CC(C)C)NC(=O)[C@H](CC(C)C)NC(=O)[C@H](CCCCN)NC(=O)[C@H](CCCCN)NC(=O)[C@H](CC(C)C)NC(=O)[C@H](CC(C)C)NC(=O)[C@H](CCCCN)NC(=O)[C@H](CCCCN)NC(=O)[C@@H](N)CC(C)C)C(=O)O [LKKLLKKLLKKLLKKLLKKL]

- MIC [37]: ≥ 75 µM
- MIC [38]: 150 µM (≈ 389 µg/mL)
- MIC [39]: 9 µM (≈ 23.3 µg/mL)
SMILES: CC[C@H](C)[C@@H]1NC(=O)[C@H](CCCCN)NC(=O)[C@@H](NC(=O)[C@H](Cc2ccccc2)NC(=O)[C@H](CC(C)C)NC(=O)[C@@H](NC(=O)[C@@H]2CCCN2C(=O)[C@@H](NC(=O)[C@@H](NC(=O)[C@H](CC(N)=O)NC(=O)[C@H](C)NC(=O)[C@H](C)NC(=O)[C@@H](NC(=O)[C@H](CCCCN)NC(=O)[C@H](CC(C)C)NC(=O)[C@H](C)NC(=O)[C@@H](NC(=O)[C@H](CO)NC(=O)[C@H](CC(C)C)NC(=O)[C@@H](N)Cc2ccccc2)[C@@H](C)O)C(C)C)C(C)C)C(C)C)[C@@H](C)O)CSSC[C@@H](C(=O)O)NC(=O)[C@H](CCCCN)NC(=O)[C@H](CCCCN)NC(=O)[C@H]([C@@H](C)O)NC1=O [FLSTALKVAANVVPTLFCKITKKC]

Continued, molecule first:

SMILES: CC[C@H](C)[C@H](N)C(=O)N[C@@H](Cc1c[nH]c2ccccc12)C(=O)N[C@@H](CCCN=C(N)N)C(=O)N[C@@H](Cc1c[nH]c2ccccc12)C(=O)N[C@@H](Cc1c[nH]c2ccccc12)C(=O)N[C@@H](Cc1c[nH]c2ccccc12)C(=O)N[C@@H](CCCN=C(N)N)C(=O)N[C@@H](Cc1c[nH]c2ccccc12)C(=O)N[C@H](C(N)=O)[C@@H](C)CC [IWRWWWRWI]
- MIC [1]: 8 µM (≈ 11.9 µg/mL)
- MIC [2]: 8 µM (≈ 11.9 µg/mL)
- MIC [3]: 32 µM (≈ 47.6 µg/mL)
- MIC [4]: 4 µM (≈ 5.95 µg/mL)
- MIC (Escherichia coli 780): 16 µM (≈ 23.8 µg/mL)
- MIC (Escherichia coli 804): 8 µM (≈ 11.9 µg/mL)
- MIC [5]: 8 µM (≈ 11.9 µg/mL)
- MIC [6]: 16 µM (≈ 23.8 µg/mL)
- MIC [7]: ≥ 32 µM
- MIC [8]: 32 µM (≈ 47.6 µg/mL)
- MIC [9]: 32 µM (≈ 47.6 µg/mL)
- MIC [10]: 4 µM (≈ 5.95 µg/mL)
- MIC (Staphylococcus aureus 75): 8 µM (≈ 11.9 µg/mL)
- MIC [11]: 4 µM (≈ 5.95 µg/mL)
- MIC [12]: 4 µM (≈ 5.95 µg/mL)

SMILES: NCCCC[C@H](NC(=O)[C@H](Cc1c[nH]c2ccccc12)NC(=O)[C@H](Cc1c[nH]c2ccccc12)NC(=O)[C@H](CCCCN)NC(=O)[C@H](CCCCN)NC(=O)[C@@H](N)Cc1c[nH]c2ccccc12)C(=O)N[C@@H](CCCN=C(N)N)C(=O)N[C@@H](CCCN=C(N)N)C(=O)N[C@@H](Cc1c[nH]c2ccccc12)C(=O)O [WKKWWKRRW]
- MIC [13]: 11 µM (≈ 16 µg/mL)
- MIC [14]: 43.2 µM (≈ 63 µg/mL)
- MIC [15]: ≥ 87 µM
- MIC [16]: ≥ 87 µM
- MIC [17]: 5.62 µM (≈ 8.2 µg/mL)
- MIC [18]: 2.74 µM (≈ 4 µg/mL)
- MIC [19]: 11 µM (≈ 16 µg/mL)
- MIC [20]: 1.37 µM (≈ 2 µg/mL)
- MIC [21]: ≥ 87 µM
- MIC [22]: 21.2 µM (≈ 31 µg/mL)
- MIC [23]: 21.2 µM (≈ 31 µg/mL)
- MIC [24]: ≥ 43.2 µM
- MIC (Pseudomonas aeruginosa 9): 21.2 µM (≈ 31 µg/mL)
- MIC [25]: 2.74 µM (≈ 4 µg/mL)
- MIC [26]: 21.2 µM (≈ 31 µg/mL)
- MIC [27]: 21.2 µM (≈ 31 µg/mL)
- MIC [28]: 11 µM (≈ 16 µg/mL)
- MIC [29]: 0.685 µM (≈ 1 µg/mL)
- MIC [30]: 1.37 µM (≈ 2 µg/mL)
- MIC [31]: 0.685 µM (≈ 1 µg/mL)

SMILES: CC(C)[C@H](N)C(=O)N[C@@H](Cc1c[nH]c2ccccc12)C(=O)N[C@@H](CCCN=C(N)N)C(=O)N[C@@H](Cc1c[nH]c2ccccc12)C(=O)N[C@@H](Cc1c[nH]c2ccccc12)C(=O)N[C@@H](Cc1c[nH]c2ccccc12)C(=O)N[C@@H](CCCN=C(N)N)C(=O)N[C@@H](Cc1c[nH]c2ccccc12)C(=O)N[C@H](C(N)=O)C(C)C [VWRWWWRWV]
- MIC [1]: 4 µM (≈ 5.83 µg/mL)
- MIC [2]: 8 µM (≈ 11.7 µg/mL)
- MIC [3]: 16 µM (≈ 23.3 µg/mL)
- MIC [4]: 4 µM (≈ 5.83 µg/mL)
- MIC (Escherichia coli 780): 4 µM (≈ 5.83 µg/mL)
- MIC (Escherichia coli 804): 16 µM (≈ 23.3 µg/mL)
- MIC [5]: 8 µM (≈ 11.7 µg/mL)
- MIC [6]: ≥ 32 µM
- MIC [7]: ≥ 32 µM
- MIC [8]: 32 µM (≈ 46.7 µg/mL)
- MIC [9]: 32 µM (≈ 46.7 µg/mL)
- MIC [10]: 4 µM (≈ 5.83 µg/mL)
- MIC (Staphylococcus aureus 75): 4 µM (≈ 5.83 µg/mL)
- MIC [11]: 4 µM (≈ 5.83 µg/mL)
- MIC [12]: 4 µM (≈ 5.83 µg/mL)

SMILES: CC(C)[C@H](N)C(=O)N[C@@H](CCCN=C(N)N)C(=O)N[C@@H](CCCN=C(N)N)C(=O)N[C@@H](Cc1c[nH]c2ccccc12)C(=O)N[C@@H](Cc1c[nH]c2ccccc12)C(=O)N[C@@H](Cc1c[nH]c2ccccc12)C(=O)N[C@@H](CCCN=C(N)N)C(=O)N[C@@H](CCCN=C(N)N)C(=O)N[C@H](C(N)=O)C(C)C [VRRWWWRRV]
- MIC [1]: ≥ 64 µM
- MIC [2]: ≥ 32 µM
- MIC [3]: 128 µM (≈ 179 µg/mL)
- MIC [4]: 4 µM (≈ 5.59 µg/mL)
- MIC (Escherichia coli 780): ≥ 64 µM
- MIC (Escherichia coli 804): ≥ 64 µM
- MIC [5]: 64 µM (≈ 89.5 µg/mL)
- MIC [6]: ≥ 128 µM
- MIC [7]: ≥ 128 µM
- MIC [8]: 32 µM (≈ 44.8 µg/mL)
- MIC [9]: 32 µM (≈ 44.8 µg/mL)
- MIC [10]: 16 µM (≈ 22.4 µg/mL)
- MIC (Staphylococcus aureus 75): 8 µM (≈ 11.2 µg/mL)
- MIC [11]: 8 µM (≈ 11.2 µg/mL)
- MIC [12]: 4 µM (≈ 5.59 µg/mL)
